Data as given in patent US10647713B2 (Nimbus Lakshmi, Inc., priority 2016, dated 2020).

Biological target: human TYK2 (JH2domain-pseudokinase) (Homo sapiens (Human), UniProt P29597)
Assay: TYK2 JH2 Domain Binding Assay (KINOMEscan, DiscoveRx)
Conditions: 11-point dilution, duplicate
Procedure, shortened: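 Kd from duplicate 11-point 3-fold dilutions starting at 30,000 nM, fitted by Hill equation with slope fixed at −1. Compounds (final 0.9% DMSO) displace DNA-tagged HEK293-expressed TYK2 JH2 fusion (<0.1 nM) from ligand-coated beads over 1 h at room temperature; eluted kinase read by qPCR.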

Chain of human TYK2 (JH2domain-pseudokinase) (P29597 556-888): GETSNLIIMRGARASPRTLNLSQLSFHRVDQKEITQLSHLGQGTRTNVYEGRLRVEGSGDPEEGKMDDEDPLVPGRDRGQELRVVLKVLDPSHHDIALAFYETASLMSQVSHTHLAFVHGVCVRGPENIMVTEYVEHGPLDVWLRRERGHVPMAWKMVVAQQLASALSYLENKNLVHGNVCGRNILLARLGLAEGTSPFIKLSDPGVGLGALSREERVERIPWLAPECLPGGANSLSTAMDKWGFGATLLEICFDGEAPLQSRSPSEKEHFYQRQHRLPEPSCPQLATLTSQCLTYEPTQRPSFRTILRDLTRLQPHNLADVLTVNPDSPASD

Kd	Compound
0.1 to 0.5 nM	COc1c(Nc2cc(NC(=O)C3CC3)nc3[nH]cnc23)cccc1-c1ncn(C)n1 [I-1, N-(7-((2-methoxy-3-(1-methyl-1H-1,2,4-triazol-3-yl)phenyl)amino)-3H-imidazo[4,5-b]pyridin-5-yl)cyclopropanecarboxamide]
> 10 nM	CS(=O)(=O)c1cc(C2CCCO2)ccc1Nc1cc(NC(=O)C2CC2)nc2[nH]c(C(F)F)nc12 (stereo not drawn) [I-335, N-(2-(difluoromethyl)-7-((2-(methylsulfonyl)-4-(tetrahydrofuran-2-yl)phenyl)amino)-3H-imidazo[4,5-b]pyridin-5-yl)cyclopropanecarboxamide]
< 0.1 nM	Cc1nc2c(Nc3ccc(-c4cncn4C)cc3S(C)(=O)=O)cc(NC(=O)[C@@H]3C[C@@H]3F)nc2[nH]1 [I-260, (1S,2S)-2-fluoro-N-(2-methyl-7-((4-(1-methyl-1H-imidazol-5-yl)-2-(methylsulfonyl)phenyl)amino)-3H-imidazo[4,5-b]pyridin-5-yl)cyclopropane-1-carboxamide]
< 0.1 nM	Cc1cc(Nc2cc(Nc3ccc(C4CCC(C)(C)CO4)cc3S(C)(=O)=O)c3nc(C)[nH]c3n2)nc(C)n1 (stereo not drawn) [I-642]
0.1 to 0.5 nM	Cc1cc(Nc2cc(Nc3ccc(-c4c(C)nn(C)c4C)cc3S(C)(=O)=O)c3nc(C(F)F)[nH]c3n2)nc(C)n1 [I-345]
< 0.1 nM	CS(=O)(=O)c1cc([C@H]2CCCCO2)ccc1Nc1cc(Nc2cc3n(n2)CCOC3)nc2[nH]c(C(F)F)nc12 [I-515, (R)-2-(difluoromethyl)-N5-(6,7-dihydro-4H-pyrazolo[5,1-c][1,4]oxazin-2-yl)-N7-(2-(methylsulfonyl)-4-(tetrahydro-2H-pyran-2-yl)phenyl)-3H-imidazo[4,5-b]pyridine-5,7-diamine]
0.1 to 0.5 nM	Cc1cnc(-c2ccc(Nc3cc(NC(=O)C4CC4)nc4[nH]c(C(F)F)nc34)c(S(C)(=O)=O)c2)n1C [I-451, N-(2-(difluoromethyl)-7-((4-(1,5-dimethyl-1H-imidazol-2-yl)-2-(methylsulfonyl)phenyl)amino)-3H-imidazo[4,5-b]pyridin-5-yl)cyclopropaneCarboxamide]
0.1 to 0.5 nM	COc1c(Nc2cc(Nc3ccc(N4CC[C@H](OC)C4)c(C#N)n3)nc3[nH]c(C)nc23)cccc1-c1nnn(C)n1 [I-112, (S)-6-((7-((2-methoxy-3-(2-methyl-2H-tetrazol-5-yl)phenyl)amino)-2-methyl-3H-imidazo[4,5-b]pyridin-5-yl)amino)-3-(3-methoxypyrrolidin-1-yl)picolinonitrile]
> 10 nM	CS(=O)(=O)c1cc(C2CCC2)ccc1Nc1cc(NC(=O)C2CC2(F)F)nc2[nH]c(C(F)F)nc12 (stereo not drawn) [I-358, N-(7-((4-cyclobutyl-2-(methylsulfonyl)phenyl)amino)-2-(difluoromethyl)-3H-imidazo[4,5-b]pyridin-5-yl)-2,2-difluorocyclopropane-1-carboxamide]
0.1 to 0.5 nM	Cc1nc2c(Nc3ccc(-c4nn(C)cc4C)cc3S(C)(=O)=O)cc(Nc3cnc(C)c(C)n3)nc2[nH]1 [I-449, N7-(4-(1,4-dimethyl-1H-pyrazol-3-yl)-2-(methylsulfonyl)phenyl)-N5-(5,6-dimethylpyrazin-2-yl)-2-methyl-3H-imidazo[4,5-b]pyridine-5,7-diamine]
0.1 to 0.5 nM	Cc1cnc(-c2ccc(Nc3cc(Nc4cccc(C#N)n4)nc4[nH]c(C(F)F)nc34)c(S(C)(=O)=O)c2)n1C [I-341]
1 to 10 nM	Cc1cc(-c2ccc(Nc3cc(NC(=O)[C@H]4CC4(F)F)nc4[nH]c(C(F)F)nc34)c(S(C)(=O)=O)c2)nn1C [I-314, (R)—N-(2-(difluoromethyl)-7-((4-(1,5-dimethyl-1H-pyrazol-3-yl)-2-(methylsulfonyl)phenyl)amino)-3H-imidazo[4,5-b]pyridin-5-yl)-2,2-difluorocyclopropane-1-carboxamide]
0.1 to 0.5 nM	Cc1cc(Nc2cc(Nc3ccc(C4CC4)cc3S(C)(=O)=O)c3nc(C(F)F)[nH]c3n2)nc(C)n1 [I-416, N7-(4-cyclopropyl-2-(methylsulfonyl)phenyl)-2-(difluoromethyl)-N5-(2,6-dimethylpyrimidin-4-yl)-3H-imidazo[4,5-b]pyridine-5,7-diamine]
0.1 to 0.5 nM	Cc1nc2c(Nc3ccc(-c4ccn(C)n4)cc3P(C)(C)=O)cc(NC(=O)C3CC3)nc2[nH]1 [I-430, N-(7-((2-(dimethylphosphoryl)-4-(1-methyl-1H-pyrazol-3-yl)phenyl)amino)-2-methyl-3H-imidazo[4,5-b]pyridin-5-yl)cyclopropanecarboxamide]
1 to 10 nM	Cc1nc2c(Nc3ccc(C4CCC4)cc3S(C)(=O)=O)cc(NC(=O)C3CC3(F)F)nc2[nH]1 (stereo not drawn) [I-361, N-(7-((4-cyclobutyl-2-(methylsulfonyl)phenyl)amino)-2-methyl-3H-imidazo[4,5-b]pyridin-5-yl)-2,2-difluorocyclopropane-1-carboxamide]
1 to 10 nM	COc1cc(-c2nc(C)nn2C)ccc1Nc1cc(NC(=O)C2CC2)nc2[nH]c(C(F)F)nc12 [I-161, N-(2-(difluoromethyl)-7-((4-(1,3-dimethyl-1H-1,2,4-triazol-5-yl)-2-methoxyphenyl)amino)-3H-imidazo[4,5-b]pyridin-5-yl)cyclopropanecarboxamide]
0.5 to 1 nM	CS(=O)(=O)c1cc([C@H]2CCCCO2)ccc1Nc1cc(Nc2cccc(C(F)(F)F)n2)nc2[nH]c(C(F)F)nc12 [I-517, (R)-2-(difluoromethyl)-N7-(2-(methylsulfonyl)-4-(tetrahydro-2H-pyran-2-yl)phenyl)-N5-(6-(trifluoromethyl)pyridin-2-yl)-3H-imidazo[4,5-b]pyridine-5,7-diamine]
0.1 to 0.5 nM	CS(=O)(=O)c1cc([C@H]2CCCO2)ccc1Nc1cc(NC(=O)C2CC2)nc2[nH]c(C(F)F)nc12 [I-425, (R)—N-(2-(difluoromethyl)-7-((2-(methylsulfonyl)-4-(tetrahydrofuran-2-yl)phenyl)amino)-3H-imidazo[4,5-b]pyridin-5-yl)cyclopropanecarboxamide]
0.1 to 0.5 nM	Cc1nc2c(Nc3ccc([C@H]4CCCO4)cc3S(C)(=O)=O)cc(Nc3ccc(C(C)C)c(C#N)n3)nc2[nH]1 [I-595, (R)-3-isopropyl-6-((2-methyl-7-((2-(methylsulfonyl)-4-(tetrahydrofuran-2-yl)phenyl)amino)-3H-imidazo[4,5-b]pyridin-5-yl)amino)picolinonitrile]
0.1 to 0.5 nM	Cc1nc2c(Nc3ccc(C4CC4)cc3S(C)(=O)=O)cc(Nc3cnc(C)c(C)n3)nc2[nH]1 [I-435, N7-(4-cyclopropyl-2-(methylsulfonyl)phenyl)-N5-(5,6-dimethylpyrazin-2-yl)-2-methyl-3H-imidazo[4,5-b]pyridine-5,7-diamine]
1 to 10 nM	Cc1cc(-c2ccc(Nc3cc(NC(=O)C4CC4(F)F)nc4[nH]c(C(F)F)nc34)c(S(C)(=O)=O)c2)nn1C (stereo not drawn) [I-338, N-(2-(difluoromethyl)-7-((4-(1,5-dimethyl-1H-pyrazol-3-yl)-2-(methylsulfonyl)phenyl)amino)-3H-imidazo[4,5-b]pyridin-5-yl)-2,2-difluorocyclopropane-1-carboxamide]
1 to 10 nM	COc1c(Nc2cc(NC(=O)[C@H]3C[C@@H]3F)nc3[nH]c(C)nc23)cccc1-c1ncn(C)n1 [I-373, (1R,2S)-2-fluoro-N-(7-((2-methoxy-3-(1-methyl-1H-1,2,4-triazol-3-yl)phenyl)amino)-2-methyl-3H-imidazo[4,5-b]pyridin-5-yl)cyclopropane-1-carboxamide]
0.5 to 1 nM	Cc1nc2c(Nc3ccc(C4CCOCC4)cc3P(C)(C)=O)cc(NC(=O)C3CC3)nc2[nH]1 [I-431, N-(7-((2-(dimethylphosphoryl)-4-(tetrahydro-2H-pyran-4-yl)phenyl)amino)-2-methyl-3H-imidazo[4,5-b]pyridin-5-yl)cyclopropanecarboxamide]
0.1 to 0.5 nM	CN(c1cc([C@H]2CCCCO2)ccc1Nc1cc(NC(=O)C2CC2)nc2[nH]c(C(F)F)nc12)S(C)(=O)=O [I-218, (R)—N-(2-(difluoromethyl)-7-((2-(N-methylmethylsulfonamido)-4-(tetrahydro-2H-pyran-2-yl)phenyl)amino)-3H-imidazo[4,5-b]pyridin-5-yl)cyclopropanecarboxamide]

Compound	Kd
COc1c(F)cccc1Nc1cc(NC(=O)C2CC2)nc2[nH]c(C)nc12 [I-104, N-(7-((3-fluoro-2-methoxyphenyl)amino)-2-methyl-3H-imidazo[4,5-b]pyridin-5-yl)cyclopropanecarboxamide]	> 10 nM
COc1c(Nc2cc(NC(=O)C3CC3)nc3[nH]c(C(F)F)nc23)cccc1C(=O)O [I-140, 3-((5-(cyclopropanecarboxamido)-2-(difluoromethyl)-3H-imidazo[4,5-b]pyridin-7-yl)amino)-2-methoxybenzoic acid]	1 to 10 nM
COc1c(Nc2cc(Nc3ccc(C)nn3)nc3[nH]c(C)nc23)cccc1-c1nnn(C)n1 [I-100, N-7-(2-methoxy-3-(2-methyl-2H-tetrazol-5-yl)phenyl)-2-methyl-N5-(6-methylpyridazin-3-yl)-3H-imidazo[4,5-b]pyridine-5,7-diamine]	0.1 to 0.5 nM
Cc1cnc(-c2ccc(Nc3cc(NC(=O)C4CC4)nc4[nH]c(C(F)F)nc34)c(S(C)(=O)=O)c2)s1 [I-304, N-(2-(difluoromethyl)-7-((2-(methylsulfonyl)-4-(5-methylthiazol-2-yl)phenyl)amino)-3H-imidazo[4,5-b]pyridin-5-yl)cyclopropanecarboxamide]	0.5 to 1 nM
Cc1nc(-c2ccc(Nc3cc(Nc4cnc(C)c(C)n4)nc4[nH]c(C)nc34)c(N(C)S(C)(=O)=O)c2)n(C)n1 [I-173, N-(5-(1,3-dimethyl-1H-1,2,4-triazol-5-yl)-2-((5-((5,6-dimethylpyrazin-2-yl)amino)-2-methyl-3H-imidazo[4,5-b]pyridin-7-yl)amino)phenyl)-N-methylmethanesulfonamide]	> 10 nM
Cc1csc(-c2ccc(Nc3cc(Nc4cnc(C)c(C)n4)nc4[nH]c(C(F)F)nc34)c(S(C)(=O)=O)c2)n1 [I-463, 2-(difluoromethyl)-N5-(5,6-dimethylpyrazin-2-yl)-N7-(2-(methylsulfonyl)-4-(4-methylthiazol-2-yl)phenyl)-3H-imidazo[4,5-b]pyridine-5,7-diamine]	1 to 10 nM
